# Source: patent US20130315843A1, “COMPOSITION FOR REDUCTION OF TRPA1 AND TRPV1 SENSATIONS” (priority 2012, published 2013)
# Like-named read-outs stand apart in the source and are kept apart here.
# Columns and labels:
# human TRPV1 [1] = target: T1, human TRPV1 (Homo sapiens, UniProt Q8NER1); assay: FLIPR Ca2+ assay, reduction of hydrogen peroxide activation of TRPV1; type: cell-based; design: expressed in transfected cells; conditions: for Ca++ counts: with compound
# Experimental: (§1) Cells were detached with addition of 10 ml of PBS (phosphate buffered saline) by hand shaking gently. Cells were transferred to a 50 ml tube and centrifuged at 850 rpm for 3 minutes to remove PBS.
# The pelleted cells were re-suspended in 10 ml assay buffer and 90 μl aliquots (˜50,000 cells) per well delivered to a 96-well assay plate containing 10 μl of test compounds (1 mM in assay buffer, […]) or buffer control and incubated at room temperature for 30 minutes.
# human TRPV1 [2] = target: T1, human TRPV1; assay: FLIPR Ca2+ assay, reduction of capsaicin activation of TRPV1; type: cell-based; design: expressed in transfected cells; conditions: for Ca++ counts: with compound
# Experimental: as §1
# (§2) The pelleted cells were re-suspended in 10 ml assay buffer and 90 μl aliquots (˜50,000 cells) per well delivered to a 96-well assay plate containing 10 μl of test compounds ([…]) or buffer control and incubated at room temperature for 30 minutes.
# human TRPA1 [3] = target: T2, human TRPA1 (Homo sapiens, UniProt O75762); assay: FLIPR Ca2+ assay, reduction of hydrogen peroxide activation of TRPA1; type: cell-based; design: expressed in transfected cells
# T2 sequence (O75762 whole entry): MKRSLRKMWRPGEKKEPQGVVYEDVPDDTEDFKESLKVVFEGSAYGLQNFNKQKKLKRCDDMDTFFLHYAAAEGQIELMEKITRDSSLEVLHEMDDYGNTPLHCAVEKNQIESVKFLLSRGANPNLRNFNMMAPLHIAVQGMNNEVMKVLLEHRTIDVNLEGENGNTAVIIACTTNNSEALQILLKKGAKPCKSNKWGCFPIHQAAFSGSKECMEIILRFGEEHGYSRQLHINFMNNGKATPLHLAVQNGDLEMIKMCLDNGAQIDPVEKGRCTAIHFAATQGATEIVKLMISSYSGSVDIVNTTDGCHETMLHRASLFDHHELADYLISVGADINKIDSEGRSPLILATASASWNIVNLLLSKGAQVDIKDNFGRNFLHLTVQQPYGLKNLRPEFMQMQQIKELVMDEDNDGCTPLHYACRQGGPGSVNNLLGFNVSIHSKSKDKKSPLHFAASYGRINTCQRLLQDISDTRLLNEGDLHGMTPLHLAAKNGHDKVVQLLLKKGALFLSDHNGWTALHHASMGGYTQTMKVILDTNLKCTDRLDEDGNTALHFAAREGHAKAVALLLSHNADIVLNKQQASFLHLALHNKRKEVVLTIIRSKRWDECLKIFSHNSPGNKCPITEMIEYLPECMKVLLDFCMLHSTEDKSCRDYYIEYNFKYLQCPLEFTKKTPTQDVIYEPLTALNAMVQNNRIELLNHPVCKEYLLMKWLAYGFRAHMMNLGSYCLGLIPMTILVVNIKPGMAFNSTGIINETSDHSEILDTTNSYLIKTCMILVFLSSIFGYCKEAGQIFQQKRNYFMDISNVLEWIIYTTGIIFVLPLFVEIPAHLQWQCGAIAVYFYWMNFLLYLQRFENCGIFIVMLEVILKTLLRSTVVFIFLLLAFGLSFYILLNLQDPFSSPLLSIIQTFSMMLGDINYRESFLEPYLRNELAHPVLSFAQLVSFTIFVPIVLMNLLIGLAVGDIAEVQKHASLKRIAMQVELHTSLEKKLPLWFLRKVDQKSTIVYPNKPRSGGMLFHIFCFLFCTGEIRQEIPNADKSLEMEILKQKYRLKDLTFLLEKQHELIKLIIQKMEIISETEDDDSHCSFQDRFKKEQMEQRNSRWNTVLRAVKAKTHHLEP
# Experimental: After centrifugation, a pellet of cells was formed in the bottom of the tube separating them from the supernatant solution.
# as §2
# human TRPV1 [4] = target: T1, human TRPV1; assay: FLIPR Ca2+ assay, reduction of L-Menthol activation of TRPV1; conditions: for Average Ca2+ Counts / % Reduction of L-Menthol TRPV1 Activation: antagonist 100 μM against 1 mM L-Menthol; for inhibition at 100 µM: read-out: % Reduction of L-Menthol TRPV1 Activation
# Experimental: To determine whether TRPV1 was activated, the intracellular calcium ion (Ca^+2) levels from cells transfected with the TRPV1 receptor gene was measured. HEK-239 cells stably transfected with human TRPV1 were grown in 15 ml growth medium [high glucose DMEM (Dulbecco's Modification of Eagle's Medium) supplemented with 10% FBS (fetal bovine serum), 100 g/ml Penicillin/streptomycin, 100 g/ml G418] in a 75 Cm2 flask for 3 days at 33° C. in a mammalian cell culture incubator set at 5% CO2. Cells were detached with addition of 10 ml of PBS (phosphate buffered saline) by hand shaking gently. Cells were transferred to a 50 ml tube and centrifuged at 850 rpm for 3 minutes to remove PBS. After centrifugation, a pellet of cells formed in the bottom of the tube separating them from the supernatant solution. The supernatant was discarded and the cell pellet suspended in 1 ml of fresh growth medium to which 5 μl (12.5 g) of Fluo-4 AM (Molecular Probes, Inc., Eugene, Oreg.) calcium indicator was added and incubated for 30 minutes with gentle shaking.
# The pelleted cells were re-suspended in 10 ml assay buffer and 90 μl aliquots (˜50,000 cells) per well delivered to a 96-well assay plate containing 10 μl of test compounds (1 mM in assay buffer, final concentration 100 μM) or buffer control and incubated at room temperature for 30 minutes. After 30 minutes, the plate was placed into a fluorometric imaging plate reader (FLIPR384 from Molecular Devices) and basal fluorescence recorded (excitation wave length 488 nm and emission wave length 510 nm). Then 20 μl of the compound being tested as a TRPV1 receptor activator was added and fluorescence recorded. […] It may be no difference (no effect), or negative (means antagonist or desensitizer) or positive (enhancer, also known as positive allosteric modulator). […] To determine if a compound was an antagonist or a desensitizer, the direct effect of a test compound was determined. For determining the direct effect of test compounds on TRPV1, 100 μl aliquots (˜50,000 cells) of cells prepared as described above were delivered to a 96-well assay plate and basal fluorescence recorded as noted above. Then 20 μl of the compound being tested as a TRPV1 receptor activator was added and fluorescence recorded. If any increase in fluorescence over background was noted, then the compound was considered an agonist. The agonist activity was expressed relative to that observed with a benchmark agonist such as 350 nM Capsaicin for TRPV1.
# 100 μM of antagonist was tested against 1 mM of L-Menthol to determine the level of reduced TRPV1 receptor activation by L-Menthol. Each antagonist compound was run with 1 mM of L-Menthol as a control and the antagonist activity of each compound was determined by comparing the Ca^2+ levels of the control with the antagonist compound being tested.
# human TRPA1 [5] = target: T2, human TRPA1; assay: FLIPR Ca2+ assay, block of AITC activation of TRPA1; type: cell-based; design: expressed in transfected cells
# Experimental: Intracellular Ca^++ levels were measured using cell based assays as described for EXAMPLES 1, 2, and 3.
# human TRPA1 [6] = target: T2, human TRPA1; assay: FLIPR Ca2+ assay, reduction of L-Menthol activation of TRPA1
# Experimental: In order to determine whether TRPA1 is activated, the intracellular calcium ion (Ca^2+) level from transfected cells with the TRPA1 receptor gene was measured. HEK-2 cells stably transfected with human TRPA1 were grown in 15 ml growth medium [high glucose DMEM (Dulbecco's Modification of Eagle's Medium) supplemented with 10% FBS (fetal bovine serum), 100 μg/ml Penicillin/streptomycin, 100 μg/ml G418] in a 75 Cm^2 flask for 3 days at 37° C. in a mammalian cell culture incubator set at 5% CO2. Cells were detached with addition of 10 ml of PBS (phosphate buffered saline) by hand shaking gently and transferred to a 50 ml tube and centrifuged at 850 rpm for 3 minutes to remove PBS. After centrifugation, a pellet of cells was formed in the bottom of the tube separating them from the supernatant solution. […] Fluo-4 is a fluorescent dye used for quantifying cellular Ca^2+ concentrations in the 100 nM to 1 μM range.
# The pelleted cells were re-suspended in 10 ml assay buffer and 90 μl aliquots (˜50,000 cells) per well delivered to a 96-well assay plate containing 10 μl of test compounds (1 mM in assay buffer, final concentration 100 μM) or buffer control and incubated at room temperature for 30 minutes. After 30 minutes, the plate was placed into a fluorometric imaging plate reader (FLIPR384 from Molecular Devices) and basal fluorescence recorded (excitation wave length 488 nm and emission wave length 510 nm). Then 20 μl of the molecule being tested as a TRPA1 antagonist was added and fluorescence recorded. For determining the direct effect of test compounds on TRPA1, fluorescence was measured immediately after addition of each compound.
# To determine if a compound was an antagonist or a desensitizer the direct effect of a test compound was determined. For determining the direct effect of test compounds on TRPA1 receptor activation, 100 μl aliquots (˜50,000 cells) of cells prepared as described above were delivered to a 96-well assay plate and basal fluorescence recorded as noted above. Then 20 μl of the compound being tested as a TRPA1 activator was added and fluorescence recorded. If any increase in fluorescence over background was noted, then the compound was considered an agonist.
# [7] = antagonist 400 μM against 500 μM hydrogen peroxide
# [8] = read-out: % Reduction of Hydrogen Peroxide TRPA1 Activation
# [9] = 100 μM antagonist vs 1 mM L-Menthol
# [10] = 100 μM antagonist vs 500 μM hydrogen peroxide
# [11] = compound 100 μM against 200 μM hydrogen peroxide, Sets 1-4
# [12] = compound 100 μM against 200 μM hydrogen peroxide, Sets 1-4, read-out: % Reduction of Hydrogen Peroxide TRPA1 Activation
# T1 sequence (Q8NER1 whole entry): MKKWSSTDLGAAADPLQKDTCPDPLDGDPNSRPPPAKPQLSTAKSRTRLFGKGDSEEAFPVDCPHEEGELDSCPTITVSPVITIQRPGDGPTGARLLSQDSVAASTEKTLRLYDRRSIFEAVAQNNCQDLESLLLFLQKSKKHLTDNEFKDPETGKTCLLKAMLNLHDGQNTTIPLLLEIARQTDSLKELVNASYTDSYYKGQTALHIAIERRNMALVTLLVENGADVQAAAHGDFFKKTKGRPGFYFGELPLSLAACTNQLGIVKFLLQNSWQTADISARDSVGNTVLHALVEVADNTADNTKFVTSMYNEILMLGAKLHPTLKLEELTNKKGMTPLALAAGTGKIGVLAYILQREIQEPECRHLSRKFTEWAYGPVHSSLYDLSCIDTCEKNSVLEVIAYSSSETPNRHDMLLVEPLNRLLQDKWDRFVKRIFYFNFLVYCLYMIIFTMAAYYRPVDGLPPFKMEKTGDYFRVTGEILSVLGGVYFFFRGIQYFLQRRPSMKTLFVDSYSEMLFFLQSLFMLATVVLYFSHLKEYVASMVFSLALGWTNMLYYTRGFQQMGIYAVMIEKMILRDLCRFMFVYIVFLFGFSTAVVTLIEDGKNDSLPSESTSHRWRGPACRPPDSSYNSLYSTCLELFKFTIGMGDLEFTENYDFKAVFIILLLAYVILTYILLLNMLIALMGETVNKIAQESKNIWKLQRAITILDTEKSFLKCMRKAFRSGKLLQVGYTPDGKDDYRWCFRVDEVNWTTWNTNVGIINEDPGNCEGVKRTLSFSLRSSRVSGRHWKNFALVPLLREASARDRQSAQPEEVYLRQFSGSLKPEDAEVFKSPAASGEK
Compound,"Ca++ counts (human TRPV1 [1]; Dose 4000, 500 uM H2O2)","Ca++ counts (human TRPV1 [2]; Dose 4000, 350 nM Capsaicin)",Average Ca2+ Counts (human TRPV1 [4]),inhibition at 100 µM (human TRPV1 [4]),Block of AITC activation of TRPA1 (human TRPA1 [5]; 100 μM antagonist),Block of L-Menthol activation of TRPA1 (human TRPA1 [6]; [9]),Block of hydrogen peroxide activation of TRPA1 (human TRPA1 [3]; [10]),Average Ca++ Counts (human TRPA1 [3]; [11]),other results
CCCCCC=CCC1CCCC1=O (centres unmarked) [Octenyl Cyclopentanone],922,9378,,,,,,,% inhibition of TRPV1 activation by 500 uM H2O2 (human TRPV1 [1]; Dose 4000): 50%; % Reduction of Hydrogen Peroxide TRPV1 Activation (human TRPV1 [1]; [7]): 50%; % inhibition of TRPV1 activation by 350 nM Capsaicin (human TRPV1 [2]; Dose 4000): 1%
"CC(=O)OC1=C(C)OC(C)C1=O (centres unmarked) [Strawberry Furanone Acetate, 4-Acetoxy-2,5-dimethyl-3(2H)-furanone]",,,,,,,,,"reduction of hydrogen peroxide activation of TRPA1, in words (human TRPA1 [3]): reduced hydrogen peroxide activation of TRPA1; Block of hydrogen peroxide activation of TRPA1 (human TRPA1 [3]; 400 μM antagonist vs 500 μM hydrogen peroxide): BLOCK ONLY H2O2/TRPA1; inhibition at 400 µM (human TRPA1 [3]; antagonist 400 μM against 200 μM hydrogen peroxide, read-out: % Reduction of Hydrogen Peroxide TRPA1 Activation): 63%; reduction of hydrogen peroxide activation of TRPV1, in words (human TRPV1 [1]): hydrogen peroxide reduction of TRPV1; inhibition at 100 µM (human TRPV1 [1]; antagonist 100 μM against 500 μM hydrogen peroxide): 60%; Ca++ counts (human TRPV1 [1]; Dose 1000, 500 uM H2O2): 451; Ca++ counts (human TRPV1 [2]; Dose 1000, 350 nM Capsaicin): 14578"
CC(C)=CC1CC(C)CCO1 (centres unmarked) [Tetrahydro-4-methyl-2-(2-methyl-1-propenyl)-2H pyran],866,11041,,,,,,,inhibition at 400 µM (human TRPV1 [1]; [7]): 53%
CCCN(CCC)CCC [Tripropylamine],715,11278,,,,,,,inhibition at 400 µM (human TRPV1 [1]; [7]): 63%
CCCCOC(=O)c1ccc(O)cc1 [butyl 4-hydroxybenzoate],,,319.0 Counts,77.2%,"Block menthol, H2O2, and AITC on TRPA1","Block menthol, H2O2, and AITC on TRPA1",,,"Average Ca++ Counts (human TRPA1 [3]): 411.0 Counts; Block of hydrogen peroxide activation of TRPA1 (human TRPA1 [3]): Block menthol, H2O2, and AITC on TRPA1; inhibition at 100 µM (human TRPA1 [3]; [8]): 96.1%"
[Cu+].[I-] [copper(i) iodide],,,651.5 Counts,,"Block menthol, H2O2, and AITC on TRPA1","Block menthol, H2O2, and AITC on TRPA1","Block menthol, H2O2, and AITC on TRPA1",,% Reduction of L-Menthol TRPV1 Activation (human TRPV1 [4]): 89.8%; % Reduction of Hydrogen Peroxide TRPA1 Activation (human TRPA1 [3]; [11]): 90.4%
c1ccc(SSc2ccccc2)cc1 [diphenyl disulfide],,,1630.5 Counts,64.9%,"Block menthol, H2O2, and AITC on TRPA1","Block menthol, H2O2, and AITC on TRPA1",,,"Average Ca++ Counts (human TRPA1 [3]): 1112.0 Counts; Block of hydrogen peroxide activation of TRPA1 (human TRPA1 [3]): Block menthol, H2O2, and AITC on TRPA1; inhibition at 100 µM (human TRPA1 [3]; [8]): 81.1%"
O=CCc1ccccc1 [phenylacetaldehyde],,,919.3 Counts,49.4%,"Block menthol, H2O2, and AITC on TRPA1","Block menthol, H2O2, and AITC on TRPA1","Block menthol, H2O2, and AITC on TRPA1",2578.5 Counts,inhibition at 100 µM (human TRPA1 [3]; [12]): 75.7%
O=C(CCc1ccc(O)cc1)c1c(O)cc(O)cc1O [phloretin],,,4616.5 Counts,27.9%,"Block menthol, H2O2, and AITC on TRPA1","Block menthol, H2O2, and AITC on TRPA1","Block menthol, H2O2, and AITC on TRPA1",215.0 Counts,inhibition at 100 µM (human TRPA1 [3]; [12]): 96.9%
manganese chloride,,,3922.0 Counts,,,,"Block menthol, H2O2, and AITC on TRPA1",2872.5 Counts,"% Reduction of L-Menthol TRPV1 Activation (human TRPV1 [4]): 38.7%; % Reduction of Hydrogen Peroxide TRPA1 Activation (human TRPA1 [3]; [11]): 59.2%; Block of AITC activation of TRPA1 (human TRPA1 [5]): Block menthol, H2O2, and AITC on TRPA1; Block of L-Menthol activation of TRPA1 (human TRPA1 [6]): Block menthol, H2O2, and AITC on TRPA1"
